Assay results published in PubChem BioAssay AID1918996 (Molecular Pharmacology Branch, DTP, NCI, 2023).

Tested on: 349418-098-R-PDC complex spheroid growth
Test: Anticancer human tumor 349418-098-R-PDC patient-derived lung adenocarcinoma cell line growth inhibition [AhR]
Conditions: for IC50: curve of first compound; for viability, T/C: stronger effect = lower value
From the text: Multicellular complex tumor spheroid response to aryl hydrocarbon receptor antagonists in combination with a variety of drugs and investigational agents in selected tumor cell lines
The current study was undertaken to assess response to aryl hydrocarbon receptor antagonists in combination with standard-of-care drugs and investigational agents in solid tumor complex spheroid models. Complex spheroids include a stromal component modeled by human endothelial cells (HUVEC) and fibroblasts modeled by human mesenchymal stem cells (MSCs). The concentration ranges selected for each drug and investigational agent were based upon clinically achievable concentrations if the clinical Cmax of the agent was known.
Compounds. The drugs and investigational agents: BAY 2416964 (NSC825713), GNF351 (NSC835774), CH-223191 (NSC835775), CPI-455 (NSC825282), aza-TdCyd (NSC777586), decitabine (NSC127716), belinostat (NSC758774), entinostat (NSC756642), pevonedistat (NSC761192), tazemetostat (NSC777109), talazoparib (NSC765396), olaparib (NSC753686), selinexor (NSC780203), nedisertib (M3814, NSC802822), bortezomib (NSC756655), venetoclax (NSC766270), doxorubicin (NSC123127), elimusertib (BAY189344, NSC800525), ceralasertib (AZD6738, NSC777638), TAK-243 (NSC785004), alisertib (NSC759677), etoposide (NSC141540), topotecan (NSC609699), eribulin (NSC707389), gemcitabine (NSC613327), carboplatin (NSC241240), cisplatin (NSC119875), and SN-38 (NSC673596) were obtained from the National Cancer Institute (NCI) Developmental Therapeutics Program Chemical Repository (32). The FDA-approved anticancer drug set is available from the Developmental Therapeutics Program at https://dtp.cancer.gov/organization/dscb/obtaining/available plates.htm. […] The stock solutions were prepared in dimethyl sulfoxide (DMSO, Sigma-Aldrich, St. Louis, MO, cat. D2650), except for the platinum compounds which were prepared in saline (Quality Biological, Gaithersburg, MD, cat. 114-055-101), at 800-fold the tested concentration and stored at -70 degrees C prior to their use. All drugs and investigational agents were tested over a range starting from a high concentration at or near the clinical Cmax and decreasing in half-log increments. If the clinical Cmax for an agent had not been determined, the highest concentration tested was 10 microM (Table 1).
Cell Culture. All cells were maintained in an incubator at 37 degrees C and 5% CO2 with 95% humidity. The PDC lines were cultured according to standard operating procedures established by the NCI PDMR (https://pdmr.cancer.gov). Briefly, all PDCs were thawed and cultured in Matrigel-coated flasks prepared with a working solution of 1X Ham's F-12 nutrient mix, without supplementation (Invitrogen, Waltham, MA, cat. 11765054), 100 U/mL penicillin-streptomycin (Invitrogen, cat. 15140122), and 2.5% Matrigel (Corning Inc., Corning, NY, cat. 354248) for the first three passages. All PDCs were cultured in complete DMEM/F-12 media containing advanced DMEM/F-12 (Invitrogen, cat. 12634028), 4.9% defined fetal bovine serum, heat inactivated (HyClone Laboratories Inc., Logan, UT, cat. SH30070.03HI), 389 ng/mL hydrocortisone (Sigma-Aldrich, cat. H4001), 9.7 ng/mL human EGF recombinant protein (Invitrogen, cat. PHG0313), 23.4 microg/mL adenine (Sigma-Aldrich, cat. A2786), 97.3 U/mL penicillin-streptomycin (Invitrogen, cat. 15140122), 1.9 mM L-glutamine (Invitrogen, cat. 25030081), and 9.7 microM Y-27632 dihydrochloride (Tocris Bioscience, Bristol, United Kingdom, cat. 1254). The PDCs were cultured in complete DMEM/F12 media without 10 microM Y-27632 dihydrochloride for at least two passages prior to the screen. The established cell lines NCI-H1341 and […] were cultured in DMEM/F-12, HEPES (Invitrogen, cat. 11330032), 5% defined fetal bovine serum (HyClone Laboratories Inc., cat. SH30070.03), ITS premix universal culture supplement [insulin (5 microg/mL), transferrin (5 microg/mL), and selenious acid (5 ng/mL)] […]

[1] = second compound 0.1 µM, first compound 0.0316 µM
[2] = second compound 0.1 µM, first compound 0.1 µM
[3] = second compound 0.1 µM, first compound 0.316 µM
[4] = second compound 0.1 µM, first compound 1 µM
[5] = second compound 0.1 µM, first compound 3.16 µM
[6] = second compound 0.1 µM, first compound 10 µM
[7] = second compound 0.316 µM, first compound 0.0316 µM
[8] = second compound 0.316 µM, first compound 0.1 µM
[9] = second compound 0.316 µM, first compound 0.316 µM
[10] = second compound 0.316 µM, first compound 1 µM
[11] = second compound 0.316 µM, first compound 3.16 µM
[12] = second compound 0.316 µM, first compound 10 µM
[13] = second compound 1 µM, first compound 0.0316 µM
[14] = second compound 1 µM, first compound 0.1 µM
[15] = second compound 1 µM, first compound 0.316 µM
[16] = second compound 1 µM, first compound 1 µM
[17] = second compound 1 µM, first compound 3.16 µM
[18] = second compound 1 µM, first compound 10 µM
[19] = second compound 3.16 µM, first compound 0.0316 µM
[20] = second compound 3.16 µM, first compound 0.1 µM
[21] = second compound 3.16 µM, first compound 0.316 µM
[22] = second compound 3.16 µM, first compound 1 µM
[23] = second compound 3.16 µM, first compound 3.16 µM
[24] = second compound 3.16 µM, first compound 10 µM
[25] = second compound 10 µM, first compound 0.0316 µM
[26] = second compound 10 µM, first compound 0.1 µM
[27] = second compound 10 µM, first compound 0.316 µM
[28] = second compound 10 µM, first compound 1 µM
[29] = second compound 10 µM, first compound 3.16 µM
[30] = second compound 10 µM, first compound 10 µM
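Further: spheroids exposed to agents for seven days before luminescence viability read.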
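Wherever viability, T/C is given: spheroids also contain HUVEC endothelial cells and human MSC stroma.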

IC50 (second compound 0.1 µM) [nM]	IC50 (second compound 0.316 µM) [nM]	IC50 (second compound 1 µM) [nM]	IC50 (second compound 3.16 µM) [nM]	IC50 (second compound 10 µM) [nM]	SMILES	viability, T/C [1] [%]	viability, T/C [2] [%]	viability, T/C [3] [%]	viability, T/C [4] [%]	viability, T/C [5] [%]	viability, T/C [6] [%]	viability, T/C [7] [%]	viability, T/C [8] [%]	viability, T/C [9] [%]	viability, T/C [10] [%]	viability, T/C [11] [%]	viability, T/C [12] [%]	viability, T/C [13] [%]	viability, T/C [14] [%]	viability, T/C [15] [%]	other results
873	1050	1060	1000	438	Nc1ccccc1NC(=O)c1ccc(CNC(=O)OCc2cccnc2)cc1 + CC(CO)NC(=O)c1cc(-c2ccc(Cl)cc2)nn(-c2cnn(C)c2)c1=O	82.8	110	73.4	45.7	23.3	7.92	114	98.5	81.7	51.4	22.7	6.83	104	104	80.9	viability, T/C [16]: 50.8%; viability, T/C [17]: 23.9%; viability, T/C [18]: 7.01%; viability, T/C [19]: 79.5%; viability, T/C [20]: 104%; viability, T/C [21]: 65.4%; viability, T/C [22]: 52.9%; viability, T/C [23]: 22.1%; viability, T/C [24]: 7.39%; viability, T/C [25]: 54.1%; viability, T/C [26]: 68.4%; viability, T/C [27]: 50.7%; viability, T/C [28]: 39.8%; viability, T/C [29]: 18.8%; viability, T/C [30]: 5.36%
572	615	638	567	445	O=C(C=Cc1cccc(S(=O)(=O)Nc2ccccc2)c1)NO + CC(CO)NC(=O)c1cc(-c2ccc(Cl)cc2)nn(-c2cnn(C)c2)c1=O	85.8	94	69.8	30	8.25	1.75	110	101	75.5	31.5	7.87	1.86	99.8	109	77	viability, T/C [16]: 31.8%; viability, T/C [17]: 8.85%; viability, T/C [18]: 1.91%; viability, T/C [19]: 90.7%; viability, T/C [20]: 102%; viability, T/C [21]: 68.4%; viability, T/C [22]: 30.1%; viability, T/C [23]: 7.44%; viability, T/C [24]: 1.82%; viability, T/C [25]: 72.7%; viability, T/C [26]: 82.5%; viability, T/C [27]: 53.6%; viability, T/C [28]: 32.1%; viability, T/C [29]: 7.16%; viability, T/C [30]: 1.98%
